Test results taken from patent US4025644A, “Tyrosine derivatives and use” (Daiichi Seiyaku Co., Ltd., priority 1974, dated 1977).
Peptide text beside a SMILES is read from it. * marks the point of attachment. Bz = O=C(c1ccccc1)*

Tests used:
[1] = test system: acetic acid ulcers in rats; assay: Anti-ulcerous effect on acetic acid-induced experimental gastric ulcers in rats (oral for 13 days from the day after ulceration), Table I; type: in vivo, Donryu-strain male rats; conditions: relative to glutamine
Text: The anti-ulcerous effects of the object compounds of this invention have been confirmed in tests on ulcers in rats. The ulcers were produced according to the method of K. Takagi, S. Okabe and R. Saziki, by the effect of acetic acid on the digestive organs (Japanese Journal of Pharmacology vol. 19 pages 418-426 (1969), Yakkyoku vol. 25 pages 1453-1459 (1974) and Experientia vol. 27 pages 146-148 (1971). It is known that this experimental ulcer resembles human peptic ulcers with respect to the overall and histological findings and as to the recovery process. The experimental details confirming the anti-ulcerous effect are as follows.
Donryu-strain male rats having a body weight -- 230-270g (ten rats to a group) were not fed for 24 hours and then were anesthesized with ether. A laparotomy was performed. The stomach was exposed and 0.05 ml of 10% acetic acid was injected into the subserosal layer in the glandular part of the anterior wall to produce the experimental ulcers. The abdomen was then closed. Beginning on the day after the ulceration, the compounds of this invention were orally administered to the rats for 13 days. The rats were fed normally and sacrificed on the 15th day after the ulcer formation. The size of the ulcer (length and width) in the glandular part of the stomach was measured and the product of the length and width was used as the ulcer index (UI). The curative ratio (%) was calculated from the ulcer index of the rats which were medicated as compared with the index of the control group. [formula]
For the purpose of comparing the effects with those of known drugs, the therapeutic effects of the compounds of this invention, tyrosine itself and gefarnate relative to those of glutamine were calculated and are listed in Table I. Of these compounds, gefarnate (geranyl farnesylacetate,U.S. Pat. No. 3,154,570 (1964) and glutamine are known anti-ulcerous drugs.

[2] = Acute toxicity, oral, mice; conditions: in vivo, mouse p.o.
[3] = test system: chronic acetic acid ulcers in rats; assay: Anti-ulcerous effect on chronic acetic acid ulcers in rats (oral, 41st to 54th day after ulceration), Table II; type: in vivo; conditions: 14 days, relative to glutamine
Procedure: Donryu-strain male rats having a body weight -- 230-270g (ten rats to a group) were not fed for 24 hours and then were anesthesized with ether. A laparotomy was performed. The stomach was exposed and 0.05 ml of 10% acetic acid was injected into the subserosal layer in the glandular part of the anterior wall to produce the experimental ulcers. The abdomen was then closed. […] […] The size of the ulcer (length and width) in the glandular part of the stomach was measured and the product of the length and width was used as the ulcer index (UI). The curative ratio (%) was calculated from the ulcer index of the rats which were medicated as compared with the index of the control group. [formula] Acetic acid ulcers in rats are known to undergo partial healing and re-ulceration so that these ulcers resemble human chronic ulcers, both histologically and functionally. In order to examine the anti-ulcerous effects on chronic ulcers, the compounds of this invention were orally administered to rats for 14 days, from the 41st day to the 54th day after ulceration with acetic acid. On the 55th day, the rats were sacrificed and the size of the ulcer was measured. The procedure used in ulceration and in the determination of effects are the same as those described hereinbefore.

Row | Structure (SMILES) | Relative therapeutic effect ([1]; 200 mg/kg/day) | LD50 [2] | other results
1 | COc1ccc(C(=O)N[C@H](CO)Cc2ccc(O)cc2)cc1 | 1.76 | > 4000 mg/kg | –
2 | COc1ccccc1C(=O)N[C@H](CO)Cc1ccc(O)cc1 | 1.29 | – | –
3 | COc1cc(C(=O)N[C@H](CO)Cc2ccc(O)cc2)cc(OC)c1OC | 1.43 | > 4000 mg/kg | –
4 | Nc1ccc(C(=O)N[C@H](CO)Cc2ccc(O)cc2)cc1 | 1.24 | – | –
5 | Cc1ccc(COC(=O)N[C@H](CO)Cc2ccc(O)cc2)cc1 | 1.81 | > 4000 mg/kg | –
6 | O=C(N[C@H](CO)Cc1ccc(O)cc1)OCc1ccc(F)cc1 | 1.14 | – | –
7 | O=C(N[C@H](CO)Cc1ccc(O)cc1)OCc1ccc(Cl)cc1 | 0.81 | – | –
8 | O=C(N[C@H](CO)Cc1ccc(O)cc1)OCC1CCCCC1 | 1.60 | – | –
9 | COc1ccc(C(=O)N[C@@H](Cc2ccccc2)C(=O)N[C@@H](Cc2ccc(O)cc2)C(=O)O)cc1 [Compound (II) R3 =CH3 O, N-(4-methoxybenzoyl)-phenylalanyltyrosine] | – | > 4000 mg/kg | Relative therapeutic effect ([3]; 50 mg/kg/day): 7.85
10 | O=C(N[C@@H](Cc1ccccc1)C(=O)N[C@@H](Cc1ccc(O)cc1)C(=O)O)c1ccccc1 [Compound (II) R3 =H, N-benzoylphenylalanyltyrosine] (Bz-Phe-Tyr-OH) | 1.19 | > 4000 mg/kg | –
11 | CC(C)=CCCC(C)=CCCC(C)=CCCC(=O)OC/C=C(\C)CCC=C(C)C [Gefarnate, geranyl farnesylacetate, reference compound] | 1.06 | – | Relative therapeutic effect ([3]; 200 mg/kg/day): 0.77
12 | NC(=O)CC[C@H](N)C(=O)O [Glutamine, glutamine, reference compound] | 0.30 | – | Relative therapeutic effect ([3]; 1000 mg/kg/day): 1.00; Relative therapeutic effect ([1]; 1000 mg/kg/day): 1.00
13 | COC(Cc1ccccc1)C(=O)N[C@H](CO)Cc1ccc(O)cc1 (stereo partly drawn) [N-(α -methoxy-β-phenylpropionyl)-tyrosinol] | – | > 4000 mg/kg | –
14 | COc1ccc(C[C@@H](CO)NC(=O)OCc2ccc(OC)c(OC)c2)cc1 [O-methyl-N-(3,4-dimethoxybenzyloxycarbonyl)-tyrosinol] | 0.98 | > 4000 mg/kg | –
15 | COc1ccc(C[C@@H](CO)NC(=O)OCc2ccccc2)cc1 [O-methyl-N-benzyloxycarbonyltyrosinol] | 1.03 | > 4000 mg/kg | –
16 | N[C@@H](Cc1ccc(O)cc1)C(=O)O [Tyrosine, tyrosine] | 0.37 | – | –
17 | COc1ccc(COC(=O)N[C@H](CO)Cc2ccc(O)cc2)cc1 [drawing 11] | 1.75 | > 4000 mg/kg | –
18 | COc1ccc(COC(=O)N[C@H](CO)Cc2ccc(O)cc2)cc1 [drawing 17] | – | – | Relative therapeutic effect ([3]; 50 mg/kg/day): 7.72
